Earlier results in US20010006673A1, “LUTEIN- CONTAINING SUPPLEMENT AND PROCESS FOR ENHANCING IMMUNE RESPONSE IN ANIMALS” (priority 1998, published 2001).

Key:
mouse splenocytes = settings: cited from earlier work
Splenocytes = settings: splenocytes from mice injected peritoneally; cited from earlier work
[1] = test system: chemical-induced carcinogenesis; settings: mice; cited from earlier work
[2] = test system: tumor necrosis factor (TNF); settings: hamsters; cited from earlier work
lymphocyte = settings: rats; cited from earlier work
human neuroblastoma cell = settings: cited from earlier work

Row | Structure (SMILES) | Ex vivo antibody response to T-dependent antigens (mouse splenocytes) | Antibody response to T-dependent antigens (Splenocytes) | further results
1 | CC1=C(/C=C/C(C)=C/C=C/C(C)=C/C=C/C=C(C)/C=C/C=C(C)/C=C/C2=C(C)C(=O)[C@@H](O)CC2(C)C)C(C)(C)C[C@H](O)C1=O [astaxanthin] | increase | enhanced | –
2 | CC1=C(/C=C/C(C)=C/C=C/C(C)=C/C=C/C=C(C)/C=C/C=C(C)/C=C/C2=C(C)C(=O)CCC2(C)C)C(C)(C)CCC1=O [canthaxanthin] | – | – | Chemical-induced carcinogenesis [1]: prevent; Production of tumor necrosis factor (TNF) by macrophages [2]: enhance; Lymphocyte proliferation (lymphocyte): increase
3 | CC1=CCCC(C)(C)C1/C=C/C(C)=C/C=C/C(C)=C/C=C/C=C(C)/C=C/C=C(C)/C=C/C1=C(C)CCCC1(C)C (stereo not drawn) [α-carotene] | – | – | Human neuroblastoma cell proliferation (human neuroblastoma cell): inhibit
4 | CC1=C(/C=C/C(C)=C/C=C/C(C)=C/C=C/C=C(C)/C=C/C=C(C)/C=C/C2=C(C)CCCC2(C)C)C(C)(C)CCC1 [β-carotene] | increase | enhanced | –
